Measured values: patent publication US4886785A, “Pyrimidine derivatives, pharmaceutical compositions and method of using same” (Hoffmann-La Roche Inc., priority 1986, dated 1989)

molecular target: herpes simplex virus type 2 (HSV-2) thymidine kinase (Human herpesvirus 2, UniProt P89446); experiment: Inhibition of herpes simplex virus type 2 (HSV-2) thymidine kinase in vitro (3H-thymidine phosphorylation); type: biochemical; settings: thymidine kinase extract, 0.3 μM 3H-thymidine, 5 mM ATP, pH 8, 37° C., 30 minutes
Sequence (P89446 whole entry): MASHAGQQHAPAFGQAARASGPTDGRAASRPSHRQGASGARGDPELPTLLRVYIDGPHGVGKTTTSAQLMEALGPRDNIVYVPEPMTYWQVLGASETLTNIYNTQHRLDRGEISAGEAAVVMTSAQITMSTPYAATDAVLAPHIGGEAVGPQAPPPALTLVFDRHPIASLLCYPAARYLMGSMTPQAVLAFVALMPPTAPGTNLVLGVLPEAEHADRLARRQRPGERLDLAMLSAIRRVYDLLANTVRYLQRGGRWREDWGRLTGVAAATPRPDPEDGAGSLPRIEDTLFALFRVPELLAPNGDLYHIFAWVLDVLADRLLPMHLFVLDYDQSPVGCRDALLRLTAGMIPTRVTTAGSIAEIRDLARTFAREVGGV
Protocol: In this test, the assay mixture contains 50 mM Tris-HCl, pH 8, 5 mM magnesium chloride, 5 mM ATP, 0.3 μM ^3 H-thymidine (50 Ci/mmol), suitably diluted thymidine kinase extract and various concentrations of compounds of formula I or tautomers in a total volume of 100 μl. Assays are incubated at 37° C. for 30 minutes and the reaction is terminated by immersion in a boiling water bath for 2 minutes. 85 μl aliquots from each assay are then dried on cellulose paper discs and the unphosphorylated ^3 H-thymidine is removed by washing in 4 mM ammonium formate. The radioactivity remaining bound to the discs is then measured by scintillation spectrophotometry. The degree of inhibition at each concentration of compound of formula I is expressed as a percentage of the control reaction (100%) after substracting a measured blank value which represents the amount of radioactivity bound to the disc from a reaction containing heat inactivated enzymes. The IC50 value, namely the concentration of compound of formula I or tautomer thereof which inhibits enzyme activity by 50%, is then calculated. The results obtained with representative compounds of formula I are compiled in the following Table: […]

| Compound | IC50 [nM] |
| --- | --- |
| CCc1cn([C@H]2C[C@H](O)[C@@H](CNCCc3c(Cl)cccc3Cl)O2)c(=O)[nH]c1=O [Example 3b, 5'-[2-(2,6-dichlorophenyl)ethylamino]-2',5'-dideoxy-5-ethyluridine] | 90 |
| CCc1cn([C@H]2C[C@H](O)[C@@H](CNCc3c(Cl)cccc3Cl)O2)c(=O)[nH]c1=O [Example 4c, 5'-(2,6-dichlorobenzylamino)-2',5'-dideoxy-5-ethyluridine] | 80 |
| CCc1cn([C@H]2C[C@H](O)[C@@H](CNCc3cccc(Cl)c3Cl)O2)c(=O)[nH]c1=O [Example 4b, 5'-(2,3-dichlorobenzylamino)-2',5'-dideoxy-5-ethyluridine] | 60 |
